Experiments:
[1] = system: skin flakiness (stratum corneocytes on the back of the hand); experiment: Reduction of skin flakiness (D-Squame discs, image analysis) after twice daily topical application to the hand; assay type: in vivo, human; conditions: used at 2%
Description: In tests conducted to compare the efficacy of various agents of this type, mannose-6-phosphate caused a reduction in skin flakiness that exceeded the reduction achieved by N-acetyl glucosamine, lactobionic acid, and various mixtures of alpha hydroxy acids, all used at the same or higher levels than the mannose-6-phosphate. In a representative test, mannose-6-phosphate used at 1% reduced skin flakiness, a common measure of exfoliation efficacy, at a level of 24% after two weeks of treatment and 36% at four weeks. […] Thus, mannose-6-phosphate is particularly and unexpectedly effective for desquamation.
Thirty female subjects between the ages of 21 and 65 are selected to test the efficacy of mannose-6-phosphate in reducing skin flakiness, an indicator of exfoliation efficacy. The subjects are instructed not to use moisturizers or any other products on their hands, and their baseline measurements are taken. […] At the end of two and four weeks the subjects return for testing without applying the product for at least 12 hours and they are re-evaluated under the same conditions. […]
To evaluate the efficacy of the treatment products, four D-Squame discs are firmly and evenly pressed on the back of each hand with a hand held uniform pressure device and removed by gently pulling away from the skin. […] Desquamation is evaluated from the D-Squame discs via an OPTIMA image analyzer. […]

[2] = system: Normal Human Dermal Fibroblasts(NHDF); experiment: Glycosaminoglycan synthesis by 3H-glucosamine incorporation in fibroblast cultures; assay type: cell-based; conditions: 48 hours
Procedure: Both mannose and mannose-6-phosphate are tested at various levels from 0.01 mg/ml to 1 mg/ml for their ability to increase the amount of glycosaminoglycans in Normal Human Dermal Fibroblasts(NHDF), using TGF- at 5 and 10 ng/ml as a positive control. NHDF cells are seeded and grown to confluence in a 24 well plate prior to being treated with the test extracts(n=3). At the same time as the treatment, the cultures are labeled with […] of ^3H-glucosamine. The cultures are incubated for 48 hours and extensively washed to remove unbound ^3H-glucosamine prior to being lysed and counted on a scintillation counter. The resulting counts represent newly synthesized glycosaminoglycans. Since glucosamine is required for glycosaminoglycan synthesis, the radioactive glucosamine added to the culture will be incorporated into any glycosaminoglycans synthesized after the addition of the treatment samples. Relative protein levels are determined by comparing the absorbance at 280 nm, of the cell lysates, to the absorbances of a bovine serum albumin curve. […] TGF-, the positive control, is found to increase levels by 28% at 10 ng/ml.

Compound	reduction in skin flakiness ([1]; after two weeks of treatment)	reduction in skin flakiness ([1]; at four weeks)	increase of glycosaminoglycan levels (normalized to protein levels) ([2]; 0.1 mg/ml)	effect on glycosaminoglycan levels ([2]; levels lower and higher than 0.1 mg/ml (tested 0.01 mg/ml to 1 mg/ml))
O=C(O)[C@H](O)[C@@H](O)[C@H](O[C@@H]1O[C@H](CO)[C@H](O)[C@H](O)[C@H]1O)[C@H](O)CO [lactobionic acid]	16%	25%		
O=C[C@@H](O)[C@@H](O)[C@H](O)[C@H](O)COP(=O)(O)O [mannose-6-phosphate]			20%	did not have any significant effect

From patent US20030031689A1, “Method of skin exfoliation” (priority 2001, published 2003)
